The results in this text go back to US4788206A, “Pentadieneamides” (Hoffmann-La Roche Inc., priority 1987, dated 1988).

This test deals with PAF-Induced Bronchoconstriction. The test is described as follows: PAF Induced Bronchoconstriction Assay. Type of test: in vivo, guinea pig. To be noted: for inhibition in vivo at 50 mg/kg: Cavia porcellus, po, 2-hour pretreatment, read-out: Percent Inhib. of PAF-Induced Bronchoconstriction, 50 mg/Kg p.o.; for inhibition in vivo at 50 mg/kg / Percent Inhib. of PAF-Induced Bronchoconstriction, 50 mg/Kg p.o. (8 hr): 50 mg/Kg p.o.; for Percent Inhib. of PAF-Induced Bronchoconstriction, mg/Kg i.v.: i.v. (dose not given), 1 minute pretreatment, PAF 1.0 μg/kg i.v. The procedure:
PAF Induced Bronchoconstriction Assay
Male animals (Hartlet Strain 400-500 g) were anesthetized with urethane (2 g/kg. i.p.). Each animals' trachea was cannulated and the guinea pigs were repirated using a Harvard small animal rodent respirator (3.0 cc stroke volume, 40 breaths per min.). Tracheal pressure was recorded from a cannula inserted in the trachea and connected to a Statham Pressure Transducer.
The jugular vein was cannulated for administering compounds. Spontaneous breathing was arrested with succinylcholine (1.2 mg/kg. i.v.) administered 2 minutes prior to intravenous injection of platelet activating factor (PAF).
For, the intravenous testing, the guinea pig is given a 5-minute pretreatment with propranolol at a dose of 0.1 mg/kg intravenously. The test compound is administered with a 1 minute pretreatment prior to intravenous challenge with PAF. The animal is than challenged with a 1.0 μg/kg intravenous dose of PAF and the change is tracheal pressure is measured.
For the oral testing, the procedure includes a 2-hour pretreatment period with the test compound administered through an oral gavage tube. Propranolol or succinylcholine and PAF are administered intravenously, and the change in tracheal pressure measured.
The change is tracheal pressure is determined by subtracting the steady state baseline achieved after administration of succinylcholine from the peak bronchoconstriction seen after challenge with PAF. The mean is calculated for each test compound and compared to the mean of the control animals to give the percent inhibition of bronchoconstriction. The standard error is calcuated as the standard error of the mean.

Regarding `COc1cccc(C(=C/C=C/C(=O)NC(C)(C)CCCc2cccnc2)c2cccc(OC)c2)c1` [(E)-5,5-bis(3-Methoxyphenyl)-N-[1,1-dimethyl-4-(3-pyridinyl)butyl]-2,4-pentadienamide], the inhibition in vivo at 50 mg/kg was 22 ± 10%. Turning to `CCCCC/C(=C\C=C\C(=O)N[C@H](C)CCCc1cccnc1)c1ccc(OC)cc1` [[R-(E,E)]5-(4-methoxyphenyl)-N-[1-methyl-4-(3-pyridinyl)butyl]-2,4-decadienamide], the “Percent Inhib. of PAF-Induced Bronchoconstriction, 50 mg/Kg p.o. (8 hr)” value is recorded as 71 ± 14%; the inhibition in vivo at 50 mg/kg is 100 ± 0.5%; the “Percent Inhib. of PAF-Induced Bronchoconstriction, mg/Kg i.v.” value amounted to 99 ± 1%. As to `COc1ccc(/C(=C\C=C\C(=O)N[C@H](C)CCCc2cccnc2)C2CCCCC2)cc1` [[R-(2E,4Z)]-5-cyclohexyl-5-(4-methoxyphenyl)-N-[1-methyl-4-(3-pyridinyl)butyl]-2,4-pentadienamide], the “Percent Inhib. of PAF-Induced Bronchoconstriction, mg/Kg i.v.” value was 18 ± 12%. Still for that read-out and setting: the result for `CCCCC/C(=C/C=C/C(=O)N[C@H](C)CCCc1cccnc1)c1ccc(OC)cc1` [[R-(2E,4Z)]-5-(4-methoxyphenyl)-N-[1-methyl-4-(3-pyridinyl)butyl]-2,4-decadienamide] reads 57 ± 12%.

Consider `CC(C)(CCCc1cccnc1)NC(=O)/C=C/C=C(c1cccc(F)c1)c1cccc(F)c1` [(E)-5,5-bis(3-Fluorophenyl)-N-[1,1-dimethyl-4-(3-pyridinyl)butyl]-2,4-pentadienamide], for which the inhibition in vivo at 50 mg/kg turned out to be 11 ± 10%. For `Cc1ccc(C(=C/C=C/C(=O)NCCCCc2cccnc2)c2ccc(C)cc2)cc1` [(E)-5,5-bis(4-methylphenyl)-N-[4-(3-pyridinyl)butyl]-2,4-pentadienamide], the “Percent Inhib. of PAF-Induced Bronchoconstriction, 50 mg/Kg p.o. (8 hr)” value was 11 ± 6%; the inhibition in vivo at 50 mg/kg turned out to be 67 ± 15%; the “Percent Inhib. of PAF-Induced Bronchoconstriction, mg/Kg i.v.” value amounted to 95 ± 1%. Take `C[C@@H](CCCc1cccnc1)NC(=O)/C=C/C=C(c1ccc(F)cc1)c1ccc(F)cc1` [[S-(E)]-5,5-bis(4-fluorophenyl)-N-[1-methyl-4-(3-pyridinyl)butyl]-2,4-pentadienamide]: the inhibition in vivo at 50 mg/kg was determined as 44 ± 10%. As to `COc1ccc(C(=C/C=C/C(=O)NC(C)(C)CCCc2cccnc2)c2ccc(OC)cc2)cc1` [(E)-5,5-bis(4-Methoxyphenyl)-N-1,1-dimethyl-4-(3-pyridinyl)butyl]-2,4-pentadienamide], the inhibition in vivo at 50 mg/kg was found to be 54 ± 9%. As to `COc1ccc(/C(=C/C=C/C(=O)N[C@H](C)CCCc2cccnc2)c2ccccc2)cc1` [[R-(E,E)]-5-(4-methoxyphenyl)-N-[1-methyl-4-(3-pyridinyl)butyl]-5-phenyl-2,4-pentadienamide], the inhibition in vivo at 50 mg/kg is 95 ± 1% and the “Percent Inhib. of PAF-Induced Bronchoconstriction, mg/Kg i.v.” value was 89 ± 4%. In the same order, the values of `COc1ccc(/C(=C\C=C\C(=O)N[C@H](C)CCCc2cccnc2)c2ccccc2)cc1` [[R-(2E,4Z)]-5-(4-methoxyphenyl)-N-[1-methyl-4-(3-pyridinyl)butyl]-5-phenyl-2,4-pentadienamide] are 0% and 74 ± 11%. Consider `CC(C)(CCCc1cccnc1)NC(=O)/C=C/C=C(c1ccc(F)cc1)c1ccc(F)cc1` [(E)-5,5-bis(4-Fluorophenyl)-N-[1,1-dimethyl-4-(3-pyridinyl)butyl]-2,4-pentadienamide], for which the inhibition in vivo at 50 mg/kg came to 20 ± 14%.

As for `COc1ccc(C(=C/C=C/C(=O)NC(CCCc2cccnc2)C(C)C)c2ccc(OC)cc2)cc1` (racemic) [[R,S-(E)]-5,5-bis(4-methoxyphenyl)-N-[1-(1-methylethyl)-4-(3-pyridinyl)butyl]-2,4-pentadienamide], the inhibition in vivo at 50 mg/kg is 57 ± 19% and the “Percent Inhib. of PAF-Induced Bronchoconstriction, mg/Kg i.v.” value was determined as 87 ± 7%.
